Experimental data as given in patent US11369659B2, “Method of enhancing a brain or cognitive function” (Brainon Inc., priority 2015, dated 2022).

How the values were obtained:
[1] = test system: scopolamine-induced memory deterioration; experiment: step-through passive avoidance test; assay type: in vivo; conditions: male ICR mice; peptide intraperitoneally 30 minutes before scopolamine; scopolamine 30 minutes before test; retention trial after 24 hours; compared with scopolamine-administered group
Experimental: Louis, Mo., USA). 4-week-old male ICR mice were purchased from Korean BioLink Co. (Chungbuk, Korea). After an adaptation period of one week, the mice were used in a test and all reagents were administered intraperitoneally. […] A passive avoidance test was performed in the same bright room and dark room. A floor of each room was formed in a shape in which 2-mm stainless steel rods were separated from each other at 1-cm intervals. Bright squares (20×20×20 cm) had 100-W bulbs. These squares were connected to a guillotine door. For an acquisition trial, the mouse was placed in the bright room after injection of the reagents and the door was opened after 10 seconds. When the mouse completely entered the dark room, the door was closed and electric shock was applied for 3 seconds. A retention trial was performed after 24 hours of the acquisition trial and the mouse was positioned in the bright room. A latency time of the acquisition and retention trials was measured by a time until the mouse entered the dark room of the box after the door was opened. The retention latency in the passive avoidance test represents a long-term memory function in rodents.

[2] = test system: scopolamine-induced memory deterioration; experiment: Y maze test; assay type: in vivo, ICR mice; conditions: for spontaneous alternation (memory improving effect): male ICR mice, peptide intraperitoneally 30 minutes before scopolamine, scopolamine 30 minutes before test, compared with scopolamine-administered group
Experimental: Scopolamine was purchased from Sigma-Aldrich (St. Louis, Mo., USA). 4-week-old male ICR mice were purchased from Korean BioLink Co. (Chungbuk, Korea). After an adaptation period of one week, the mice were used in a test and all reagents were administered intraperitoneally.
The mouse was placed at one end of a Y maze with a length of one branch of 30 cm, a width of 5 cm, and a height of 13 cm and the order of entry into each branch was recorded. Alternation was judged to be successful if the mouse sequentially entered three different branches. Spontaneous alternation was defined as Equation below. Spontaneous alternation (%)=the number of alternations/(total number of entries−2)×100

| Compound | retention trial latency time (memory improving effect) [1] | spontaneous alternation (memory improving effect) [2] | spontaneous alternation (memory improving effect) ([2]; listed as sequence number 2) | mean of spontaneous alternations ([2]; scopolamine-injected group compared with normal saline group) |
| --- | --- | --- | --- | --- |
| GAG [Peptide-2] | improved to be close to a normal group administered with saline | slight improvement | excellent effect as compared with a control group |  |
| CN1[C@@H]2C[C@@H](OC(=O)[C@H](CO)c3ccccc3)C[C@H]1[C@@H]1O[C@@H]12 [scopolamine, Scopolamine, reference compound] |  |  |  | significantly lowered |
| AGAG [Peptide-3] | a little effect | excellent effect as compared with a control group |  |  |
